Assay results as given in patent publication US11207313B2, “Pharmaceutical composition” (Novartis AG, priority 2017, dated 2021).

Experiments:
Type in all cases: physicochemical
[1] = Solubility of Compound A in formulations and precipitation on storage at room temperature
[2] = Precipitation of Compound A under dispersion in pH 6.5 buffer (microscope); settings: room temperature, after at least 6 hours, all developed formulations
From the text: Then, the precipitation of Compound A in each formulation was controlled by microscope under dispersion in pH 6.5 buffer at room temperature.

[3] = Biopharmaceutics classification and water solubility statement
From the text: The design of a pharmaceutical composition, a pharmaceutical dosage form, as well as a commercially viable process to prepare the pharmaceutical composition, for a non-bile FXR agonist, such as 2-[(1R,3R,5S)-3-({5-cyclopropyl-3-[2-(trifluoromethoxy)phenyl]-1,2-oxazol-4-yl}methoxy)-8-azabicyclo[3.2.1]octan-8-yl]-4-fluoro-1,3-benzothiazole-6-carboxylic acid, or a pharmaceutically acceptable salt thereof, is especially challenging. […] For example, due to its very high potency a low dosage is needed, generating unwanted formulation issues such as content uniformity, and additional handling restrictions on a large manufacturing scale. […] Accordingly, a suitable and robust solid pharmaceutical composition overcoming the above problems needs to be developed.

SMILES: O=C(O)c1cc(F)c2nc(N3C4CCC3CC(OCc3c(-c5ccccc5OC(F)(F)F)noc3C3CC3)C4)sc2c1 [Compound A, 2-[(1R,3R,5S)-3-({5-cyclopropyl-3-[2-(trifluoromethoxy)phenyl]-1,2-oxazol-4-yl}methoxy)-8-azabicyclo[3.2.1]octan-8-yl]-4-fluoro-1,3-benzothiazole-6-carboxylic acid]
- Precipitation after storage ([1]; 7 days storage at room temperature, all formulations): no precipitation was observed
- Solubility of Compound A in formulations ([1]; all formulations of Tables 1 to 3 combined with Compound A): fully soluble
- Precipitation of Compound A under dispersion [2]: No precipitation
- Biopharmaceutics classification system class [3]: class IV
- Water solubility [3]: low water solubility
